This series can be described thus: Human HepG2 cell viability assay in 384 well format. The class given is toxicity, cell-based. Also on record: dose 125 nL, time 70.5 hour; concentration not given beside the values. Particulars: HepG2 cells, read-out: Inhibition.
With `CCc1nnc(CN2CCc3ccc(S(N)(=O)=O)cc32)o1`, the cytotoxicity at 70.5 h is -0.999%.

In the case of `CN(C(=O)c1ccccc1N(C)S(C)(=O)=O)c1ccc(C(C)(C)C)cc1`, the cytotoxicity at 70.5 h came out at 5.15%.

Regarding `Cc1ncsc1C(=O)N1CCCC1c1c(C)nn(C)c1C` (centres undefined), the cytotoxicity at 70.5 h is -1.63%.

With `O=S(=O)(NCc1ccnc(-n2ccnc2)c1)c1cncc(Cl)c1`, the cytotoxicity at 70.5 h is -0.226%.

In the case of `CCN(Cc1cnc(C)cn1)C1CCN(c2ccccc2)C1=O` (centres undefined), the cytotoxicity at 70.5 h came to 2.9%.

Consider `CCOCCC(=O)N(CCC#N)c1ccc(C)c(C)c1`, for which the cytotoxicity at 70.5 h is -1.94%.

On to `CC(C(=O)NCc1ccc2c(c1)OCCO2)n1cncn1` (centres undefined), for which the cytotoxicity at 70.5 h came out at 31.8%.

Turning to `O=C(CCn1cccn1)NCCOc1ccc2c(c1)OCO2`, the cytotoxicity at 70.5 h is -6.03%.

Take `O=C(CCOc1ccc(Cl)cc1)NCCCn1cccn1`: the cytotoxicity at 70.5 h came to 23.1%.

Consider `N#Cc1cccnc1N1CCC(Nc2ccccc2)C1` (centres undefined), for which the cytotoxicity at 70.5 h is -8.64%.

As for `Cc1ccc(C(=O)NC2CCN(S(C)(=O)=O)CC2)c(=O)[nH]1`, the cytotoxicity at 70.5 h was -14.3%.

Turning to `Cc1nn(CC(=O)NCC2(C(N)=O)CCOCC2)c(C)c1Cl`, the cytotoxicity at 70.5 h was -8.87%.

For the compound `Cc1nn(C)c(Cl)c1C(=O)NCC1(C(N)=O)CCOCC1`, the cytotoxicity at 70.5 h was -11.7%.

For the compound `Cc1ncc2c(n1)CN(Cc1nc(-c3ccsc3)oc1C)CC2`, the cytotoxicity at 70.5 h is -15.2%.

Consider `CC(C)NC(=O)CN(C)C(=O)c1csc(Cc2ccccc2F)n1`, for which the cytotoxicity at 70.5 h was -6.85%.

In the case of `Cc1nc(COC(=O)c2cccc3c2OCCO3)no1`, the cytotoxicity at 70.5 h came to 23.5%.

In the case of `N#CC1COCCN1C(=O)c1ccc2cc[nH]c2c1` (centres undefined), the cytotoxicity at 70.5 h is -9.25%.

As for `CC(C)NC(=O)CNC(=O)c1csc(Cc2ccccc2F)n1`, the cytotoxicity at 70.5 h is -4.54%.

With `Cn1cc(CN2CCS(=O)(=O)C(C)(C)C2)cn1`, the cytotoxicity at 70.5 h was -9.13%.

Turning to `Cc1nc(COC(=O)c2cccnc2C)no1`, the cytotoxicity at 70.5 h is -5.39%.

Regarding `CCCC(C#N)NC(=O)c1sccc1CC` (centres undefined), the cytotoxicity at 70.5 h was -12.4%.

Consider `CCc1ncc2c(n1)CN(Cc1nc(-c3ccco3)oc1C)CC2`, for which the cytotoxicity at 70.5 h is -7.47%.

In the case of `COc1cc(NC2CCCN(c3ncccc3C#N)C2)cc(OC)c1` (centres undefined), the cytotoxicity at 70.5 h is 23%.

Consider `CCN(C)Cc1cccc(CNC(=O)CSCc2ccccn2)c1`, for which the cytotoxicity at 70.5 h is -15.2%.

`CC(NCc1cccc(NC(=O)C2CCCCC2)c1)c1cnn(C)c1` (centres undefined): the cytotoxicity at 70.5 h was -9.44%.

On to `CC(C)C(=O)Nc1cccc(CNC(=O)CSCc2ccccn2)c1`, for which the cytotoxicity at 70.5 h was -11.7%.

In the case of `CC(C(=O)NCC(C)(C)c1ccc2c(c1)OCCO2)n1cncn1` (centres undefined), the cytotoxicity at 70.5 h was 0.318%.

Consider `CC(CNS(N)(=O)=O)Oc1cccc(Cl)c1` (centres undefined), for which the cytotoxicity at 70.5 h is -0.0153%.

Take `O=C(NC1CCS(=O)(=O)C1)c1ccccc1SCc1cscn1` (centres undefined): the cytotoxicity at 70.5 h was -9.17%.

Turning to `O=C(NC1CCS(=O)(=O)C1)c1ccc(SCc2cscn2)cc1` (centres undefined), the cytotoxicity at 70.5 h was -6.01%.

Turning to `Cc1noc(C(C)Nc2ccc3oc(C(C)C)nc3c2)n1` (centres undefined), the cytotoxicity at 70.5 h came to 1.64%.

On to `CCc1ccsc1C(=O)N(C)CCc1ccncc1`, for which the cytotoxicity at 70.5 h was -1.38%.

Consider `CCc1c(C(=O)N2CCOC(C)(C)C2)cnn1-c1ccccn1`, for which the cytotoxicity at 70.5 h was -2.04%.

As for `Cc1nnc(NC(=O)NCc2ccc(C)n2C)s1`, the cytotoxicity at 70.5 h was 13.4%.

As to `CC(C)CC(C#N)NC(=O)CCNC(=O)C(C)(C)C` (centres undefined), the cytotoxicity at 70.5 h was 2.87%.

As to `Cc1ccc(C(=O)NCC(C)Cn2ccnc2C)c(=O)[nH]1` (centres undefined), the cytotoxicity at 70.5 h came out at 0.288%.

With `COCCS(=O)(=O)N(Cc1ccsc1)c1ccccc1`, the cytotoxicity at 70.5 h turned out to be 2.67%.

For the compound `CC(CNS(C)(=O)=O)Oc1cccc(Cl)c1` (centres undefined), the cytotoxicity at 70.5 h is 3.7%.

With `Cn1ccnc1C(=O)NCCS(=O)(=O)c1ccc(C(C)(C)C)cc1`, the cytotoxicity at 70.5 h was -3.28%.

With `CN(C)c1nc(CNC(=O)NC2COc3ccccc32)cs1` (centres undefined), the cytotoxicity at 70.5 h came out at 2.4%.

Consider `CSc1c[nH]nc1NS(=O)(=O)c1cc(F)ccc1C`, for which the cytotoxicity at 70.5 h was -3.64%.

On to `CN(C)C(=O)N1CCN(Cc2cnc(-c3ccsc3)s2)CC1`, for which the cytotoxicity at 70.5 h was -11.7%.

Consider `O=C(CC1OCCc2ccccc21)NCC1(O)CCCCC1` (centres undefined), for which the cytotoxicity at 70.5 h was -2.94%.

For `CC(C)CCC(=O)NC(C#N)CC(C)C` (centres undefined), the cytotoxicity at 70.5 h was determined as 3.54%.

For `Cc1ccc(-c2ncc(CN3CCN(C(=O)N(C)C)CC3)s2)o1`, the cytotoxicity at 70.5 h was -7.74%.

As to `CN(Cc1ccc(F)cc1F)Cc1cc2c(cc1Br)OCCO2`, the cytotoxicity at 70.5 h is -6.67%.

Take `Cc1ccc(CN(C(=O)NC2CCS(=O)(=O)C2)C2CC2)o1` (centres undefined): the cytotoxicity at 70.5 h is -7.82%.

Consider `O=C(NCC1CCS(=O)(=O)C1)N(Cc1ccco1)C1CC1` (centres undefined), for which the cytotoxicity at 70.5 h was -10.7%.

Take `O=C(Cc1c(F)cccc1Cl)Nc1cccc(N2CCCC2)c1`: the cytotoxicity at 70.5 h was -4.34%.

As to `CCC(CNC(=O)CCn1cncn1)N1CCc2ccccc2C1` (centres undefined), the cytotoxicity at 70.5 h came out at 7.08%.

Turning to `CCN(CC)C(CNC(=O)c1ccnc(N(C)C)c1)c1ccsc1` (centres undefined), the cytotoxicity at 70.5 h was -5.28%.

On to `Cc1ccc(-c2cc(CNC(=O)NC3CCCCNC3=O)on2)cc1` (centres undefined), for which the cytotoxicity at 70.5 h is -8.17%.

For the compound `Cc1ccc(CN(C(=O)NCC2CCCO2)C2CC2)o1` (centres undefined), the cytotoxicity at 70.5 h is -9.69%.

As to `CC(CNC(=O)CCn1cncn1)N1CCc2ccccc21` (centres undefined), the cytotoxicity at 70.5 h is -1.72%.

On to `CC(C)CC(=O)N1Cc2ccccc2CC1C(=O)Nc1nccs1` (centres undefined), for which the cytotoxicity at 70.5 h was -8.5%.

As for `CCc1ncc2c(n1)CN(c1nnc(C)c(C)c1C#N)CC2`, the cytotoxicity at 70.5 h amounted to 5.31%.

With `CCOC(=O)C1(O)CCN(C(=O)Nc2cccc(CC)c2)CC1`, the cytotoxicity at 70.5 h was -0.303%.

Take `O=C(NCCc1ccncc1)c1cccc(S(=O)(=O)NC2CC2)c1`: the cytotoxicity at 70.5 h was 1.33%.

Regarding `NC(=O)c1ccc(N2CCN(CCCc3cn[nH]c3)CC2)cc1`, the cytotoxicity at 70.5 h is -0.688%.

In the case of `Cc1ccc(C)n1-c1ccsc1C(=O)NCC(=O)N1CCCC1`, the cytotoxicity at 70.5 h was -1.31%.

Regarding `NC(=O)COc1cccc(CN2CCCC2c2ccc[nH]2)c1` (centres undefined), the cytotoxicity at 70.5 h was -5.09%.

Regarding `Cc1cc(NC(=O)N2CCCC(O)C2)nn1-c1ccccc1Cl` (centres undefined), the cytotoxicity at 70.5 h is -5.66%.

On to `Cn1c(=O)ccn(CC(=O)NCC2Cc3ccccc3O2)c1=O` (centres undefined), for which the cytotoxicity at 70.5 h is -0.993%.

As to `CCOCCOC(C)C(=O)Nc1ccc2[nH]c(C)cc2c1` (centres undefined), the cytotoxicity at 70.5 h is -8.04%.

`CCSCCC(=O)NCc1cnn(-c2ccc(F)cc2F)c1`: the cytotoxicity at 70.5 h stood at 7.31%.

Turning to `CCS(=O)(=O)NC1CCCN(Cc2ccn(C)c(=O)c2)C1` (centres undefined), the cytotoxicity at 70.5 h is -9.02%.

As for `CCOCCOC(C)C(=O)Nc1ccc2c(ccn2CC)c1` (centres undefined), the cytotoxicity at 70.5 h is -6.19%.

As for `Cn1c(NCC(=O)N2CCCCC2)c(C#N)c(=O)n(C)c1=O`, the cytotoxicity at 70.5 h was -11.6%.

Take `CC(=O)N1CCN(C(=O)CCNc2snc(Cl)c2C#N)CC1`: the cytotoxicity at 70.5 h was -10.6%.

`CCC(=O)NCC(=O)NC(Cc1ccccc1)c1sccc1C` (centres undefined): the cytotoxicity at 70.5 h was -2.67%.

In the case of `CC(=O)NC1(C(=O)N2CCC(Nc3cccnn3)CC2)CCCCC1`, the cytotoxicity at 70.5 h is 3.94%.

Take `Cn1ccc(C(=O)N2CCCC(CNS(C)(=O)=O)C2)cc1=O` (centres undefined): the cytotoxicity at 70.5 h is -8.6%.

Regarding `Cc1ccsc1C(Cc1ccccc1)NC(=O)CSCC(N)=O` (centres undefined), the cytotoxicity at 70.5 h was -4.76%.

For the compound `CC(C)(C)NC(=O)CN1CCNCC1`, the cytotoxicity at 70.5 h was found to be 6.83%.
